The source of these data is ChEMBL document CHEMBL1143413, “Synergistic effect of posaconazole and caspofungin against clinical zygomycetes” (Antimicrob Agents Chemother, 2007).

Data set [1] concerns Absidia. Nature of the data set: Antifungal activity against Absidia strain 18 zygomycota by conventional morphological method. The class given is functional.
The subject of data set [2] is Rhizopus. Put plainly: Antifungal activity against Rhizopus strain 0 zygomycota by conventional morphological method. The class given is functional.
Data set [3] relates to Mucor. Nature of the data set: Antifungal activity against Mucor strain 39 zygomycota by conventional morphological method. The data set is classed as functional.
In data set [4] the test system is Absidia. Put plainly: Antifungal activity against Absidia strain 11 zygomycota by conventional morphological method. The class given is functional.
Data set [5] concerns Rhizopus. Nature of the data set: Antifungal activity against Rhizopus strain 3 zygomycota by conventional morphological method. The class given is functional.
Data set [6] concerns Rhizopus. Put plainly: Antifungal activity against Rhizopus strain 8 zygomycota by conventional morphological method. The data set is classed as functional.
The subject of data set [7] is Syncephalastrum. Put plainly: Antifungal activity against Snycephalastrum sp. strain 23 zygomycota by conventional morphological method. The data set is classed as functional.
Data set [8] deals with Cunninghamella. Nature of the data set: Antifungal activity against Cunninghamella sp. strain 12 zygomycota by conventional morphological method. The class given is functional.
The test system of data set [9] is Mucor. Nature of the data set: Antifungal activity against Mucor strain 43 zygomycota by conventional morphological method. The data set is classed as functional.
The subject of data set [10] is Absidia. Put plainly: Antifungal activity against Absidia strain 17 zygomycota by conventional morphological method. The class given is functional.
The subject of data set [11] is Rhizomucor. Nature of the data set: Antifungal activity against Rhizomucor sp. strain 25 zygomycota by conventional morphological method. The data set is classed as functional.
Data set [12] has as its system Mucor. Nature of the data set: Antifungal activity against Mucor strain 28 zygomycota by conventional morphological method. The class given is functional.
Data set [13] can be described thus: Toxicity in invasive zygomycosis diseased patient assessed as mortality. The data set is classed as organism-based. Particulars: human, in vivo; read-out: Activity.

In brackets after ≈: the same amount, converted by molar mass.

Turning to `CC[C@H](C)C[C@H](C)CCCCCCCCC(=O)N[C@H]1C[C@@H](O)[C@@H](NCCN)NC(=O)[C@@H]2[C@@H](O)CCN2C(=O)[C@H]([C@H](O)CCN)NC(=O)[C@H]([C@H](O)[C@@H](O)c2ccc(O)cc2)NC(=O)[C@@H]2C[C@@H](O)CN2C(=O)[C@H]([C@@H](C)O)NC1=O` [CASPOFUNGIN], the MIC in data set [1], in [2], in data set [3], in data set [4], in [5] and in data set [6] was over 256 µg/mL each time. For the same molecule, the MIC in [7] was over 256 µg/mL; in [8], over 256 µg/mL; in [9], 256 µg/mL (≈ 234 µM); in data set [10], over 256 µg/mL; in [11] it was 128 µg/mL (≈ 117 µM); in data set [12], 256 µg/mL (≈ 234 µM).
Consider `CC[C@@H]([C@H](C)O)n1ncn(-c2ccc(N3CCN(c4ccc(OC[C@@H]5CO[C@@](Cn6cncn6)(c6ccc(F)cc6F)C5)cc4)CC3)cc2)c1=O` [POSACONAZOLE], for which the MIC worked out at 0.5 µg/mL (≈ 0.713 µM) in [1]; 1 µg/mL (≈ 1.43 µM) in data set [2]; 1 µg/mL (≈ 1.43 µM) in data set [3]; 1 µg/mL (≈ 1.43 µM) in [4]; 1 µg/mL (≈ 1.43 µM) in [5]; 1 µg/mL (≈ 1.43 µM) in data set [6]. For the same molecule, the MIC was 1 µg/mL (≈ 1.43 µM) in data set [7]; 1 µg/mL (≈ 1.43 µM) in data set [8]; 0.5 µg/mL (≈ 0.713 µM) in data set [9]; 1 µg/mL (≈ 1.43 µM) in data set [10]; 2 µg/mL (≈ 2.85 µM) in data set [11]; 0.5 µg/mL (≈ 0.713 µM) in [12]. Moreover, the mortality in data set [13] came out at 30%.
